Target: FAK kinase (catalytic construct FAK(410-689)) (Homo sapiens (Human), UniProt Q05397)
Experiment: FAKcd kinase ELISA (inhibition of poly-glu-tyr phosphorylation by FAK(410-689))
Type: biochemical
Conditions: 50 μM final ATP
Experimental: A. In-Vitro Activity of FAK:
The assay protocol has three parts:
3. […] 4. […] 5. […] 6. […] 7. […] 9. […] 10. […] 12. […] 13. […] 14. Aliquot the FAKcd protein and store frozen at −80° C. II. FAK Activation 1. […] At t120 (t=120 minutes), add 10 μl of 150 mM ATP. […] Add 180 μl aliquots of the desalted material to NiNTA spin column and incubate on spin column 4. […] FAKcd Kinase ELISA 1. Coat 96-well Nunc MaxiSorp plates with poly-glu-tyr (pGT) at […]: Prepare 10 μg/ml of pGT in PBS and aliquot 100 μl/well. Incubate the plates at 37° C. overnight, aspirate the supernatant, wash the plates 3 times with Wash Buffer, and flick to dry before storing at 4° C. 2. Prepare compound stock solutions of 2.5 mM in 100% DMSO. The stocks are subsequently diluted to 60× of the final concentration in 100% DMSO, and diluted 1:5 in Kinase Phosphorylation Buffer. 3. […] Add 80 μl to each well for a final ATP concentration of 50 μM. 4. […] 5. Dilute on ice, FAKcd protein to 1:1000 in Kinase Phosphorylation Buffer. Dispense 30 μl per well. 6. Note: Linearity and the appropriate dilution must be pre-determined for each batch of protein. The enzyme concentration selected should be such that quantitation of the assay signal will be approximately 0.8-1.0 at OD450, and in the linear range of the reaction rate. 7. Prepare both a No ATP control (noise) and a No Compound Control (Signal): 8. (Noise) One blank row of wells receives 10 μl of 1:5 diluted compounds in DMSO, 80 μl of Phosphorylation buffer (minus ATP), and 30 μl FAKcd solution. 9. […] 10. Incubate reaction at room temperature for 15 minutes with gentle shaking on a plate shaker. 11. Terminate the reaction by aspirating off the reaction mixture and washing 3 times with wash buffer. 12. Dilute phospho-tyrosine HRP-conjugated (pY20HRP) antibody to 0.250 μg/ml (1:1000 of Stock) in blocking buffer. Dispense 100 μl per well, and incubate with shaking for 30 minutes at 25°. 13. Aspirate the supernatant and wash the plate 3 times with wash buffer. 14. Add 100 μl per well of room temperature TMB solution to initiate color development. Color development is terminated after approximately 15-30 sec. by the addition of 100 μl of 0.09M H2SO4 per well. 15. The signal is quantitated by measurement of absorbance at 450 nm on the BioRad ricroplate reader or a microplate reader capable of reading at OD450. 16. Inhibition of tyrosine kinase activity would result in a reduced absorbance signal. […] The values are reported as IC50s, μM concentration. FAK Inducible cell-based ELISA: Final Protocol Materials: […]

FAK kinase (catalytic construct FAK(410-689)), sequence (Q05397 410-689): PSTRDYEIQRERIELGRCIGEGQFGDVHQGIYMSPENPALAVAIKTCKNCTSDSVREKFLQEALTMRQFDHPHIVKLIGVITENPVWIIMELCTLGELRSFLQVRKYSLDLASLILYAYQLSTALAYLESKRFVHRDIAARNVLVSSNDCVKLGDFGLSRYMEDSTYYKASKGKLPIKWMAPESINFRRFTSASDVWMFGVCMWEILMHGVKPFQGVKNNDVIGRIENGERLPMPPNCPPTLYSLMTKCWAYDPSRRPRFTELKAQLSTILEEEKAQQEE

Row | IC50 | Compound
1 | 0.6 nM | Cc1cccc(N(C)S(C)(=O)=O)c1CNc1nc(Nc2ccccc2)ncc1C(F)(F)F [Compound 67, N-[2-({[2-anilino-5-(trifluoromethyl)pyrimidin-4-yl]amino}methyl)-3-methylphenyl]-N-methylmethanesulfonamide]
2 | 0.6 nM | Cc1cccc(NS(C)(=O)=O)c1CNc1nc(Nc2ccccc2)ncc1C(F)(F)F [Compound 69, N-[2-({[2-anilino-5-(trifluoromethyl)pyrimidin-4-yl]amino}methyl)-3-methylphenyl]methane-sulfonamide]
3 | 0.6 nM | Cc1cnc(N(C)S(C)(=O)=O)c(CNc2nc(Nc3ccccc3)ncc2C(F)(F)F)c1 [Compound 70, N-[3-({[2-anilino-5-(trifluoromethyl)pyrimidin-4-yl]amino}methyl)-5-methylpyridin-2-yl]-N-methylmethanesulfonamide]
4 | 0.6 nM | CN(c1nccnc1CNc1nc(Nc2ccc(C(N)=O)cc2)ncc1C(F)(F)F)S(C)(=O)=O [Compound 71, 4-({4-[({3-[methyl(methylsulfonyl)amino]pyrazin-2-yl}methyl)amino]-5-(trifluoromethyl)pyrimidin-2-yl}amino)benzamide]
5 | 0.6 nM | CN(c1cccnc1CNc1nc(Nc2ccc(C(N)=O)cc2)ncc1C(F)(F)F)S(C)(=O)=O [Compound 73, 4-({4-(({3-[methyl(methylsulfonyl)amino]pyridin-2-yl}methyl)amino]-5-(trifluoromethyl)pyrimidin-2-yl}amino)benzamide]
6 | 0.6 nM | CN(c1nccnc1CNc1nc(Nc2ccccc2)ncc1C(F)(F)F)S(C)(=O)=O [Compound 75, N-[3-({[2-anilino-5-(trifluoromethyl)pyrimidin-4-yl]amino}methyl)pyrazin-2-yl]-N-methylmethane-sulfonamide]
7 | 93 nM | CN(c1cccnc1CNc1nc(Nc2ccccc2)ncc1C(F)(F)F)S(C)(=O)=O [Compound 76, N-[2-({[2-anilino-5-(trifluoromethyl)pyrimidin-4-yl]amino}methyl)pyridin-3-yl]-N-methylmethane-sulfonamide]
8 | 0.6 nM | CCNC(=O)c1ccc(Nc2ncc(C(F)(F)F)c(NCc3cccc(S(C)(=O)=O)c3)n2)cc1 [Compound 77, N-ethyl-4-{[4-{[3-(methylsulfonyl)benzyl]amino}-5-(trifluoromethyl)pyrimidin-2-yl]amino}benzamide]
9 | 0.6 nM | Cc1ccnc(N(C)S(C)(=O)=O)c1CNc1nc(Nc2ccccc2)ncc1C(F)(F)F [Compound 78, N-[3-({[2-anilino-5-(trifluoromethyl)pyrimidin-4-yl)amino}methyl)-4-methylpyridin-2-yl]-N-methylmethanesulfonamide]
10 | 2.62 nM | Cc1ncc(CNc2nc(Nc3ccccc3)ncc2C(F)(F)F)c(N(C)S(C)(=O)=O)n1 [Compound 79, N-[5-({[2-anilino-5-(trifluoromethyl)pyrimidin-4-yl]amino}methyl)-2-methylpyrimidln-4-yl]-N-methylmethanesulfonamide]
11 | 0.59 nM | Cc1cc(N(C)S(C)(=O)=O)c(CNc2nc(Nc3ccccc3)ncc2C(F)(F)F)cn1 [Compound 80, N-[5-({[2-anilino-5-(trifluoromethyl)pyrimidin-4-yl]amino}methyl)-2-methylpyridin-4-yl]-N-methylmethanesulfonamide]
12 | 15.8 nM | CN(c1ncccc1CNc1nc(Nc2ccc(C(F)(F)F)nc2)ncc1C(F)(F)F)S(C)(=O)=O [Compound 81, N-methyl-N-[3-({[5-(trifluoromethyl)-2-{[6-(trifluoromethyl)pyridin-3-yl]amino}pyrimidin-4-yl]amino}methyl)pyridin-2-yl]methanesulfonamide]
13 | 0.6 nM | Cc1cnc(N(C)S(C)(=O)=O)c(CNc2nc(Nc3ccc(C(N)=O)cc3)ncc2C(F)(F)F)c1 [Compound 82, 4-({4-(({5-methyl-2-[methyl(methylsulfonyl)amino]pyridin-3-yl}methyl)amino]-5-(trifluoromethyl)pyrimidin-2-yl}amino)benzamide]
14 | 0.6 nM | Cc1ccnc(N(C)S(C)(=O)=O)c1CNc1nc(Nc2ccc(C(N)=O)cc2)ncc1C(F)(F)F [Compound 83, 4-({4-[({4-methyl-2-[methyl(methylsulfonyl)amino]pyrldin-3-yl}methyl)amino]-5-(trifluoromethyl)pyrimidin-2-yl}amino)benzamide]
15 | 1.71 nM | Cc1ncc(CNc2nc(Nc3ccc(C(N)=O)cc3)ncc2C(F)(F)F)c(N(C)S(C)(=O)=O)n1 [Compound 84, 4-({4-[({2-methyl-4-[methyl(methylsulfonyl)amino]pyrimidin-5-yl}methyl)amino]-5-(trifluoromethyl)pyrimidin-2-yl}amino)benzamide]
16 | 0.84 nM | Cc1cc(N(C)S(C)(=O)=O)c(CNc2nc(Nc3ccc(C(N)=O)cc3)ncc2C(F)(F)F)cn1 [Compound 85, 4-({4-[({6-methyl-4-[methyl(methylsulfonyl)amino]pyridin-3-yl}methyl)amino]-5-(trifluoromethyl)pyrimidin-2-yl}amino)benzamide]
17 | 1.61 nM | CNC(=O)c1cccc(Nc2ncc(C(F)(F)F)c(NCc3cccnc3N(C)S(C)(=O)=O)n2)c1 [Compound 86, N-methyl-3-({4-[({2-[methyl(methylsulfonyl)amino]pyridin-3-yl}methyl)amino]-5-(trifluoromethyl)pyrimidin-2-yl}amino)benzamide]
18 | 21.5 nM | CN(c1ncccc1CNc1nc(Nc2cccc(C(=O)Nc3cccc(C(F)(F)F)c3)c2)ncc1C(F)(F)F)S(C)(=O)=O [Compound 88, 3-({4-[({2-[methyl(methylsulfonyl)amino]pyridin-3-yl}methyl)amino]-5-(trifluoromethyl)pyrimidin-2-yl}amino)-N-[3-(trifluoromethyl)phenyl]benzamide]
19 | 0.6 nM | CCNC(=O)c1ccc(Nc2ncc(C(F)(F)F)c(NCc3ccc(C)nc3N(C)S(C)(=O)=O)n2)cc1 [Compound 89, N-ethyl-4-({4-[({6-methyl-2-[methyl(rnethylsu!fonyl)amino]pyridin-3-yl}methyl)amino]-5-(trifluoromethyl)pyrimidin-2-yl}amino)benzamide]
20 | 0.72 nM | CN(c1ncccc1CNc1nc(Nc2cccc(C(=O)N3CC(O)C3)c2)ncc1C(F)(F)F)S(C)(=O)=O [Compound 90, N-[3-({[2-({3-{(3-hydroxyazetidin-1-yl)carbonyl]phenyl}amino)-5-(trifluoromethyl)pyrimidin-4-yl]amino}methyl)pyridin-2-yl]-N-methylmethane-sulfonamide]
21 | 188 nM | CCn1nccc1Nc1ncc(C(F)(F)F)c(NCc2cccnc2N(C)S(C)(=O)=O)n1 [Compound 91, N-{3-[({2-[(1-ethyl-1H-pyrazol-5-yl)amino]-5-(trifluoromethyl)pyrimidin-4-yl}amino)methyl]pyridin-2-yl}-N-methylmethane-sulfonamide]
22 | 0.6 nM | COc1cc(Nc2ncc(C(F)(F)F)c(NCc3cccnc3N(C)S(C)(=O)=O)n2)ccn1 [Compound 93, N-{3-[({2-[(2-methoxypyridin-4-yl)amino]-5-(trifluoromethyl)pyrimidin-4-yl}amino)methyl]pyridin-2-yl}-N-methylmethane-sulfonamide]
23 | 8.01 nM | Cc1cnccc1Nc1ncc(C(F)(F)F)c(NCc2cccnc2N(C)S(C)(=O)=O)n1 [Compound 94, N-methyl-N-{3-[({2-[(3-methylpyridin-4-yl)amino]-5-(trifluoromethyl)pyrimidin-4-yl)amino)methyl]pyridin-2-yl]methanesulfonamide]
24 | 0.6 nM | CN(c1ncccc1CNc1nc(Nc2ccc(C#N)cc2)ncc1C(F)(F)F)S(C)(=O)=O [Compound 95, N-{3-[({2-[(4-cyanophenyl)amino]-5-(trifluoromethyl)pyrimidin-4-yl}amino)methyl]pyridin-2-yl}-N-methylmethane-sulfonamide]
25 | 0.59 nM | CCNC(=O)c1ccc(Nc2ncc(C(F)(F)F)c(NCc3ncccc3N(C)S(C)(=O)=O)n2)cc1 [Compound 97, N-ethyl-4-({4-[({3-[methyl(methylsulfonyl)amino]pyridin-2-yl}methyl)amino]-5-(trifluoromethyl)pyrimidin-2-yl}amino)benzamide]

Reference: patent US10450297B2, “Sulfonyl amide derivatives for the treatment of abnormal cell growth” (Pfizer, Inc., priority 2007, dated 2019)
